Data taken from ChEMBL document CHEMBL1148851, “Chemoenzymatic synthesis and in vitro studies on the hydrolysis of antimicrobial monoglycosyl diglycerides by pancreatic lipase” (2007).
In brackets after ≈: the same amount, converted by molar mass.

Experiments:
Assay type in all cases: functional
[1] = test system: Staphylococcus aureus; experiment: Antibacterial activity against Staphylococcus aureus SA85 isolate
[2] = test system: Mycobacterium tuberculosis; experiment: Antibacterial activity against Mycobacterium tuberculosis H190 by dilution method
[3] = test system: Staphylococcus aureus; experiment: Antibacterial activity against Staphylococcus aureus SA52 isolate
[4] = test system: Kluyveromyces marxianus; experiment: Antifungal activity against Candida pseudotropicalis by dilution method
[5] = test system: Enterococcus faecalis; experiment: Antibacterial activity against Enterococcus faecalis ATCC 29212
[6] = test system: Escherichia coli; experiment: Antibacterial activity against Escherichia coli ATCC 25922
[7] = test system: Bacillus subtilis; experiment: Antibacterial activity against Bacillus subtilis ATCC 6633; conditions: Bacillus subtilis, ATCC 6633; read-out: MIC
[8] = test system: Staphylococcus aureus; experiment: Antibacterial activity against Staphylococcus aureus SA87 isolate; conditions: Staphylococcus aureus; read-out: MIC
[9] = test system: Staphylococcus aureus; experiment: Antibacterial activity against Staphylococcus aureus ATCC 105487
[10] = test system: Mycobacterium tuberculosis; experiment: Antibacterial activity against Mycobacterium tuberculosis H37Rv by dilution method; conditions: Mycobacterium tuberculosis, H37Rv; read-out: MIC
[11] = test system: Candida albicans; experiment: Antifungal activity against Candida albicans by dilution method
[12] = test system: Staphylococcus aureus; experiment: Antibacterial activity against Staphylococcus aureus ATCC 25923
[13] = test system: Pseudomonas aeruginosa; experiment: Antibacterial activity against Pseudomonas aeruginosa ATCC 27753
[14] = test system: Mycobacterium tuberculosis; experiment: Antibacterial activity against Mycobacterium tuberculosis H160 by dilution method; conditions: Mycobacterium tuberculosis, H160; read-out: MIC

SMILES | MIC [1] | MIC [2] | MIC [3] | MIC [4] | MIC [5] | MIC [6] | MIC [7] | MIC [8] | MIC [9] | MIC [10] | MIC [11] | MIC [12] | MIC [13] | MIC [14]
CCCCC/C=C\C/C=C\CCCCCCCC(=O)OC(COC(=O)CCCCCCC)CO[C@@H]1O[C@H](CO)[C@@H](O)[C@H](O)[C@H]1O (some centres not stated) | > 128 µg/mL | 64 µg/mL (≈ 99.6 µM) | > 128 µg/mL | > 128 µg/mL | > 128 µg/mL | > 128 µg/mL | 128 µg/mL (≈ 199 µM) | 64 µg/mL (≈ 99.6 µM) | > 128 µg/mL | 64 µg/mL (≈ 99.6 µM) | > 128 µg/mL | > 128 µg/mL | > 128 µg/mL | 128 µg/mL (≈ 199 µM)
CC/C=C\C/C=C\C/C=C\CCCCCCCC(=O)OC(COC(=O)CCCCCCC)CO[C@@H]1O[C@H](CO)[C@H](O)[C@H](O)[C@H]1O (some centres not stated) | > 128 µg/mL | 128 µg/mL (≈ 200 µM) | > 128 µg/mL | > 128 µg/mL | > 128 µg/mL | > 128 µg/mL | 128 µg/mL (≈ 200 µM) | 64 µg/mL (≈ 99.9 µM) | > 128 µg/mL | 128 µg/mL (≈ 200 µM) | > 128 µg/mL | > 128 µg/mL | > 128 µg/mL | 128 µg/mL (≈ 200 µM)
CCCCCCCC/C=C\CCCCCCCC(=O)OCC(CO[C@@H]1O[C@H](CO)[C@@H](O)[C@H](O)[C@H]1O)OC(=O)CCCCCCC/C=C\CCCCCCCC (some centres not stated) | > 128 µg/mL | > 128 µg/mL | > 128 µg/mL | > 128 µg/mL | > 128 µg/mL | > 128 µg/mL | > 128 µg/mL | > 128 µg/mL | > 128 µg/mL | > 128 µg/mL | > 128 µg/mL | > 128 µg/mL | > 128 µg/mL | > 128 µg/mL
